Laboratory results as given in patent US12054486B2, “Pyridine derivatives and their use as sodium channel activators” (Xenon Pharmaceuticals Inc., priority 2021, dated 2024).
Where a name gives a salt, the structure may show the parent alone.

Each compound was assayed against sodium channel isoforms of interest stably expressed in Human Embryonic Kidney Cells (voltage-gated sodium channel, particularly NaV1.1) (Homo sapiens, UniProt P35498) (assay: automated planar patch clamp assay of sodium channel gating (area under the sodium current trace)). Conditions: HEK cells, voltage step from −120 mV to 0 mV, increasing concentrations.
Type: cell-based
From the text: A typical assay described in Crestey, F. et al., ACS Chem Neurosci (2015), Vol. 6, pp. 1302-1308, AA43279 (Frederiksen, K. et al., Eur J Neurosci (2017), Vol. 46, pp. 1887-1896) and Lu AE98134 (von Schoubyea, N. L. et al., Neurosci Lett (2018), Vol. 662, pp. 29-35) employs the use of automated planar patch clamp techniques to study the effects of the chemical agent on the gating of sodium channels. The sodium channel isoforms of interest are stably expressed in Human Embryonic Kidney Cells and the currents that flow through those channels in response to a depolarizing voltage clamp step from −120 mV to 0 mV are measured in the presence of increasing concentrations of the chemical agents. The area under the sodium current trace which correlates to the magnitude of sodium flux through the cell membrane is used to quantify the effects on gating of the channels. Other parameters that are measured in the assay include the peak current, time constant of open state inactivation and the voltage dependence of steady state inactivation properties. The concentration responses are used to determine potency of each chemical agents effects on modulating the sodium channel isoform gating. Such techniques are known to those skilled in the art, and may be developed, using current technologies, into low or medium throughput assays for evaluating compounds for their ability to modulate sodium channel behaviour.
As disclosed above, typical assays for testing compounds of the disclosure are known, for example as disclosed in Crestey, F. et al., ACS Chem Neurosci (2015), Vol. 6, pp. 1302-1308, AA43279 (Frederiksen, K. et al., Eur J Neurosci (2017), Vol. 46, pp. 1887-1896) and Lu AE98134 (von Schoubyea, N. L. et al., Neurosci Lett (2018), Vol. 662, pp. 29-35) which employs the use of automated planar patch clamp techniques to study the effects of the chemical agent on the gating of sodium channels. The sodium channel isoforms of interest are stably expressed in Human Embryonic Kidney Cells and the currents that flow through those channels in response to a depolarizing voltage clamp step from −120 mV to 0 mV are measured in the presence of increasing concentrations of the chemical agents. The area under the sodium current trace which correlates to the magnitude of sodium flux through the cell membrane is used to quantify the effects on gating of the channels. Other parameters that are measured in the assay include the peak current, time constant of open state inactivation and the voltage dependence of steady state inactivation properties. The concentration responses are used to determine potency of each chemical agents effects on modulating the sodium channel isoform gating.

SMILES	EC50 [µM]	Empirical Emax
CC(C)c1ccc(-c2nnc(-c3c(-c4ccccc4)ccnc3N3CC[C@H](F)C3)o2)cc1 [Example 30, (S)-2-(2-(3-fluoropyrrolidin-1-yl)-4-phenylpyridin-3-yl)-5-(4-isopropylphenyl)-1,3,4-oxadiazole]	1 to 10	+ (+ indicates a value less than 2.0 μM)
CC(C)(C)c1ccc2nc(-c3c(-c4ccccc4)ncnc3N3CCCC3)[nH]c2c1 [Example 31, 6-(tert-butyl)-2-(4-phenyl-6-(pyrrolidin-1-yl)pyrimidin-5-yl)-1H-benzo[d]imidazole]	1 to 10	+++ (+++ indicates a value from 5.0 up to 7.5 μM)
F[C@H]1CCN(c2nccc(-c3ccccc3)c2-c2nnn[nH]2)C1 [Example 32, (S)-2-(3-fluoropyrrolidin-1-yl)-4-phenyl-3-(1H-tetrazol-5-yl)pyridine]	< 1	+ (+ indicates a value less than 2.0 μM)
Cc1nc(-c2c(-c3ccccc3)ccnc2N2CC[C@H](F)C2)[nH]c1C(F)(F)F [Example 33, (S)-2-(3-fluoropyrrolidin-1-yl)-3-(4-methyl-5-(trifluoromethyl)-1H-imidazol-2-yl)-4-phenylpyridine]	10 to 50	++ (++ indicates a value from 2.0 up to 5.0 μM)
CC(C)(C)OC(=O)N1CCc2nc(-c3c(-c4ccccc4)ccnc3N3CC[C@H](F)C3)[nH]c2C1 [Example 34, Tert-Butyl (S)-2-(2-(3-fluoropyrrolidin-1-yl)-4-phenylpyridin-3-yl)-3,4,6,7-tetrahydro-5H-imidazo[4,5-c]pyridine-5-carboxylate]	1 to 10	+++ (+++ indicates a value from 5.0 up to 7.5 μM)
F[C@H]1CCN(c2nccc(-c3ccccc3)c2-c2nc3c([nH]2)CNCC3)C1 [Example 35, (S)-2-(2-(3-fluoropyrrolidin-1-yl)-4-phenylpyridin-3-yl)-4,5,6,7-tetrahydro-3H-imidazo[4,5-c]pyridine 2,2,2-trifluoroacetic Acid Salt (Free Acid)]	≥ 50	+ (+ indicates a value less than 2.0 μM)
CN1CCc2nc(-c3c(-c4ccccc4)ccnc3N3CC[C@H](F)C3)[nH]c2C1 [Example 36, (S)-2-(2-(3-fluoropyrrolidin-1-yl)-4-phenylpyridin-3-yl)-5-methyl-4,5,6,7-tetrahydro-3H-imidazo[4,5-c]pyridine]	10 to 50	+ (+ indicates a value less than 2.0 μM)
CC(=O)N1CCc2nc(-c3c(-c4ccccc4)ccnc3N3CC[C@H](F)C3)[nH]c2C1 [Example 37, (S)-1-(2-(2-(3-fluoropyrrolidin-1-yl)-4-phenylpyridin-3-yl)-3,4,6,7-tetrahydro-5H-imidazo[4,5-c]pyridin-5-yl)ethan-1-one]	10 to 50	
CC(C)N1CCc2nc(-c3c(-c4ccccc4)ccnc3N3CC[C@H](F)C3)[nH]c2C1 [Example 38, (S)-2-(2-(3-fluoropyrrolidin-1-yl)-4-phenylpyridin-3-yl)-5-isopropyl-4,5,6,7-tetrahydro-3H-imidazo[4,5-c]pyridine]	≥ 50	+ (+ indicates a value less than 2.0 μM)
F[C@H]1CCN(c2nccc(-c3ccccc3)c2-c2nc3c([nH]2)CN(C2COC2)CC3)C1 [Example 39, (S)-2-(2-(3-fluoropyrrolidin-1-yl)-4-phenylpyridin-3-yl)-5-(oxetan-3-yl)-4,5,6,7-tetrahydro-3H-imidazo[4,5-c]pyridine]	10 to 50	++ (++ indicates a value from 2.0 up to 5.0 μM)
CCOC(=O)N1CCc2nc(-c3c(-c4ccccc4)ccnc3N3CC[C@H](F)C3)n(C(=O)OCC)c2C1 [Example 40, diethyl (S)-2-(2-(3-fluoropyrrolidin-1-yl)-4-phenylpyridin-3-yl)-6,7-dihydro-3H-imidazo[4,5-c]pyridine-3,5(4H)-dicarboxylate]	1 to 10	+++ (+++ indicates a value from 5.0 up to 7.5 μM)
CC(C)C(=O)N1CCc2nc(-c3c(-c4ccccc4)ccnc3N3CC[C@H](F)C3)[nH]c2C1 [Example 41, (S)-1-(2-(2-(3-fluoropyrrolidin-1-yl)-4-phenylpyridin-3-yl)-3,4,6,7-tetrahydro-5H-imidazo[4,5-c]pyridin-5-yl)-2-methylpropan-1-one]	≥ 50	+ (+ indicates a value less than 2.0 μM)
F[C@H]1CCN(c2nccc(-c3ccccc3)c2-c2nc3c([nH]2)CN(Cc2ccccc2)CC3)C1 [Example 42, (S)-5-benzyl-2-(2-(3-fluoropyrrolidin-1-yl)-4-phenylpyridin-3-yl)-4,5,6,7-tetrahydro-3H-imidazo[4,5-c]pyridine]	< 1	++ (++ indicates a value from 2.0 up to 5.0 μM)
FC1(F)CCN(c2nccc(-c3ccccc3)c2-c2nc3c([nH]2)COCC3)C1 [Example 43, 2-(2-(3,3-difluoropyrrolidin-1-yl)-4-phenylpyridin-3-yl)-3,4,6,7-tetrahydropyrano[3,4-d]imidazole]	< 1	+++ (+++ indicates a value from 5.0 up to 7.5 μM)
c1ccc(-c2ccnc(N3CCCC3)c2-c2nc3c([nH]2)COCC3)cc1 [Example 44, 2-(4-phenyl-2-(pyrrolidin-1-yl)pyridin-3-yl)-3,4,6,7-tetrahydropyrano[3,4-d]imidazole]	1 to 10	+++ (+++ indicates a value from 5.0 up to 7.5 μM)
FC1(F)C2CN(c3nccc(-c4ccccc4)c3-c3nc4c([nH]3)COCC4)CC21 (centres unmarked) [Example 45, 2-(2-(6,6-difluoro-3-azabicyclo[3.1.0]hexan-3-yl)-4-phenylpyridin-3-yl)-3,4,6,7-tetrahydropyrano[3,4-d]imidazole]	< 1	+++ (+++ indicates a value from 5.0 up to 7.5 μM)
N#CC1CCN(c2nccc(-c3ccccc3)c2-c2nc3c([nH]2)COCC3)C1 (centres unmarked) [Example 46]	1 to 10	+++ (+++ indicates a value from 5.0 up to 7.5 μM)
FC(F)(F)C1CCN(c2nccc(-c3ccccc3)c2-c2nc3c([nH]2)COCC3)C1 (centres unmarked) [Example 47, 2-(4-phenyl-2-(3-(trifluoromethyl)pyrrolidin-1-yl)pyridin-3-yl)-3,4,6,7-tetrahydropyrano[3,4-d]imidazole]	1 to 10	+++ (+++ indicates a value from 5.0 up to 7.5 μM)
F[C@@H]1CN(c2nccc(-c3ccccc3)c2-c2nc3c([nH]2)COCC3)C[C@@H]1F [Example 48, 2-(2-((3S,4R)-3,4-difluoropyrrolidin-1-yl)-4-phenylpyridin-3-yl)-3,4,6,7-tetrahydropyrano[3,4-d]imidazole]	1 to 10	+++ (+++ indicates a value from 5.0 up to 7.5 μM)
FC1(F)CCCN(c2nccc(-c3ccccc3)c2-c2nc3c([nH]2)COCC3)C1 [Example 49, 2-(2-(3,3-difluoropiperidin-1-yl)-4-phenylpyridin-3-yl)-3,4,6,7-tetrahydropyrano[3,4-d]imidazole]	10 to 50	++ (++ indicates a value from 2.0 up to 5.0 μM)
FC1(F)CC2(CN(c3nccc(-c4ccccc4)c3-c3nc4c([nH]3)COCC4)C2)C1 [Example 50, 2-(2-(6,6-difluoro-2-azaspiro[3.3]heptan-2-yl)-4-phenylpyridin-3-yl)-3,4,6,7-tetrahydropyrano[3,4-d]imidazole]	10 to 50	++ (++ indicates a value from 2.0 up to 5.0 μM)
FC(F)(F)C1(CNc2nccc(-c3ccccc3)c2-c2nc3c([nH]2)COCC3)CCC1 [Example 51, 4-phenyl-3-(3,4,6,7-tetrahydropyrano[3,4-d]imidazol-2-yl)-N-((1-(trifluoromethyl)cyclobutyl)methyl)pyridin-2-amine]	< 1	+ (+ indicates a value less than 2.0 μM)
CC1(C)Cc2nc(-c3c(-c4ccccc4)ccnc3N3CCC(F)(F)C3)[nH]c2CO1 [Example 52, 2-(2-(3,3-difluoropyrrolidin-1-yl)-4-phenylpyridin-3-yl)-6,6-dimethyl-3,4,6,7-tetrahydropyrano[3,4-d]imidazole]	< 1	+++ (+++ indicates a value from 5.0 up to 7.5 μM)
FC1(F)CCN(c2nccc(-c3ccccc3)c2-c2nc3c([nH]2)COC2(CCC2)C3)C1 [Example 53, 2′-(2-(3,3-difluoropyrrolidin-1-yl)-4-phenylpyridin-3-yl)-4′,7′-dihydro-3′H-spiro[cyclobutane-1,6′-pyrano[3,4-d]imidazole]]	1 to 10	++ (++ indicates a value from 2.0 up to 5.0 μM)
